Experiment [1] concerns RBL-2H3 cells. Put plainly: Fluorescence-based assay of store-operated calcium entry in RBL-2H3 cells (FLIPR, thapsigargin). Format: cell-based, rat. The note with it: Fluo-4, Upslope 0-7 sec, read-out: FLIPR_CRAC: 9 pt CRC - Fluo4_TG-D: RBL-2H3: IC50: Upslope 0-7 sec. Here is the method: B. Fluorescence-Based Assay of Store-Operated Calcium Entry in RBL-2H3 Cells.
RBL-2H3 cells are obtained from ATCC and maintained in complete medium with 10% FBS at 37° C./6% CO2.
The day prior to performing the assay, RBL-2H3 cells are plated in 50 μl of complete medium in a 384 well plate. Cells are grown at 37° C./6% CO2 overnight and grow to 50-60% confluence by the next day. On the assay day, 1.5 μM Fluo-4-AM dye (Invitrogen) in complete medium is added and incubated for 1 hour at RT. Cells are washed twice in Ca^2+-free HBSS buffer and 35 μl Ca^2+-free HBSS buffer is added to each well. 10 μl of a test compound prepared in a Ca^2+-free HBSS solution at 4.5× of the desired concentration is added to a well and incubated for 5 minutes at RT. 10 μl of thapsigargin prepared in a Ca^2+-free HBSS solution at 5.5× of the desired concentration (5.5 uM) is added to each well and incubated for an additional 25 minutes. The initial baseline fluorescence signal is measured with a FLIPR^384 (Molecular Devices) plate reader. 5 μl of 12× calcium in HBSS (12 mM) is added and changes in cellular fluorescence are measured with the FLIPR^384 plate reader. In each well, the change in the fluorescent signal as a function of time due to calcium entry into the cell is determined by calculating the difference between the fluorescent signal measured 7 seconds after calcium addition and the initial baseline fluorescence signal at time zero (t=0). This parameter is designated Upslope. The IC50 value is calculated as the concentration at which 50% of the Upslope is inhibited.

The target in experiment [2] is T1, recombinant human STIM1 and Orai1 (Homo sapiens, UniProt Q96D31).
T1 construct: c-myc (C); expressed in transfected cells; host or cells: HEK-293 cells stably expressing human STIM1 and human Orai1
Put plainly: Fluorescence-based assay of store-operated calcium entry in Orai1/STIM1 stable cells (FLIPR). Format: cell-based. Particulars: for IC50: HEK-293 cells stably expressing human Orai1/STIM1, Fluo-4, Peak-Basal signal, read-out: FLIPR_CRAC: 9 point CRC: O1S1_JR251: IC50: Peak_over_Basal; for FLIPR_CRAC: 9 point CRC: O1S1_JR251: efficacy: printed in the IC50 column in place of a class symbol. Here is the method: A. Fluorescence-Based Assay of Store-Operated Calcium Entry in Orai1/Stim1 Stable Cells.
Cells stably expressing recombinant human STIM1 and Orai1 are generated by transfecting a human Orai1 expression plasmid (pcDNA3.1-Orai1-cmyc) into HEK-293 cells stably overexpressing human STIM1 (Roos et al. 2005 JCB 169(3): 435-445). Colonies of cells stably expressing both STIM1 and Orai1 proteins are selected and then subcloned by limiting dilution. Cells were cultured at 37° C./6% CO2 in complete medium with 10% FBS and appropriate selection markers.
The day prior to performing the assay Orai1/STIM1 stable cells are plated in 50 μL of complete medium at 90-95% confluence in a 384 well plate. Cells are grown at 37° C./6% CO2 overnight. On the day of the assay, 1.5 μM fluo-4-AM (Invitrogen) in complete medium is added to the cells, which are then incubated for 1 hour at RT. Cells are washed once in Ca^2+-free HBSS (Hank's buffered saline solution) and 35 μl of Ca^2+-free HBSS is added to each well. Test compounds are added to wells in a 10 μL Ca^2+-free HBSS solution, prepared at 4.5× the desired final concentration, and incubated for 30 minutes at RT. The initial baseline fluorescence signal is then measured with a FLIPR^384 (Molecular Devices) plate reader. Calcium entry is initiated by adding 5 μl of 10×CaCl2 (10 mM) in HBSS, and changes in cellular fluorescence are measured with the FLIPR^384 plate reader. In each well, the magnitude of the fluorescence signal as a result of calcium entry into the cell is determined by calculating the difference between the peak fluorescence signal measured after calcium addition and the initial baseline fluorescence signal (designated Peak-Basal). IC50 values are typically calculated as the concentration that inhibited 50% of the Peak-Basal signal.

Like-named read-outs stand apart in the source and are kept apart here.

T1 sequence (Q96D31 whole entry): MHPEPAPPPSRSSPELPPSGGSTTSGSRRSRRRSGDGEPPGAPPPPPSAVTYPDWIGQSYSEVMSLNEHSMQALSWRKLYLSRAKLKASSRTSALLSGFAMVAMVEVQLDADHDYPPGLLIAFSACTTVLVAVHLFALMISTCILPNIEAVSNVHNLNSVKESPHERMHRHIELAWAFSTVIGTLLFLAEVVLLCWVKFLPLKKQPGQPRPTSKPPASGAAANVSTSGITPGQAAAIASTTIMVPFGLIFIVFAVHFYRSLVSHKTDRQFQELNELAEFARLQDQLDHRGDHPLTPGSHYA

What is called IC50 is the concentration that inhibits the measured activity by half. Take `O=C(Nc1ccccc1Cl)c1ccc(-c2cc3scnc3cc2Cl)s1` [Example 8, N-(2-chlorophenyl)[5-(5-chlorobenzothiazol-6-yl)(2-thienyl)]carboxamide]: the IC50 in experiment [1] (Rattus norvegicus) was below 600 nM; in experiment [2], 600 to 1200 nM.

On to `Cc1cc2cnn(C)c2cc1-c1ccc(C(=O)Nc2ccccc2F)s1` [Example 12], for which the IC50 was below 600 nM in experiment [1] (Rattus norvegicus) and 600 to 1200 nM in experiment [2].

`Cc1cc2cn(C)nc2cc1-c1ccc(C(=O)Nc2ccccc2Cl)s1` [Example 14]: the IC50 was below 600 nM in experiment [1] (Rattus norvegicus) and 600 to 1200 nM in experiment [2].

Turning to `Cc1cc2cn(C)nc2cc1-c1ccc(C(=O)Nc2c(F)cccc2F)s1` [Example 15], the IC50 in experiment [2] was 600 to 1200 nM.

As for `Cc1nc(-c2cc(-c3ccc(C(=O)Nc4c(F)cccc4F)s3)n(C)n2)no1` [Example 16, N-(2,6-difluorophenyl){5-[1-methyl-3-(5-methyl(1,2,4-oxadiazol-3-yl))pyrazol-5-yl](2-thienyl)}carboxamide], the IC50 in experiment [2] lay within 600 to 1200 nM.

For `Cc1nc(-c2cc(-c3ccc(C(=O)Nc4ccccc4F)s3)n(C)n2)no1` [Example 17, N-(2-fluorophenyl){5-[1-methyl-3-(5-methyl(1,2,4-oxadiazol-3-yl))pyrazol-5-yl](2-thienyl)}carboxamide], the IC50 is below 600 nM in experiment [1] (Rattus norvegicus) and 600 to 1200 nM in experiment [2].

Turning to `Cc1nc(-c2cc(-c3cnc(NC(=O)c4ccccc4Cl)s3)n(C)n2)no1` [Example 18, (2-chlorophenyl)-N-{5-[1-methyl-3-(5-methyl(1,2,4,-oxadiazol-3-yl))pyrazol-5-yl](1,3-thiazol-2-yl)}carboxamide], the IC50 in experiment [2] was above 1200 nM.

For `Cn1c(-c2cnc(NC(=O)c3ccccc3Cl)s2)cc2ccccc21` [Example 22, (2-chlorophenyl)-N-[5-(1-methylindol-2-yl)(1,3-thiazol-2-yl)]carboxamide], the IC50 was below 600 nM in experiment [1] (Rattus norvegicus) and above 1200 nM in experiment [2].

On to `CC(C)n1nc(C(F)(F)F)cc1-c1cnc(NC(=O)c2ccccc2Cl)s1` [Example 25, (2-chlorophenyl)-N-{5-[1-(methylethyl)-3-(trifluoromethyl)pyrazol-5-yl](1,3-thiazol-2-yl)}carboxamide], for which the IC50 is 600 to 1200 nM in experiment [1] (Rattus norvegicus) and above 1200 nM in experiment [2].

Turning to `Cc1cccnc1C(=O)Nc1ncc(-c2cc(C(F)(F)F)nn2C)s1` [Example 26, (3-methyl(2-pyridyl))-N-{5-[1-methyl-3-(trifluoromethyl)pyrazol-5-yl](1,3-thiazol-2-yl)}carboxamide], in experiment [1], the IC50 is below 600 nM. Moreover, the “FLIPR_CRAC: 9 point CRC: O1S1_JR251: efficacy” value in experiment [2] is below 50% efficacy.

For `Cn1nc(C(F)(F)F)cc1-c1ncc(NC(=O)c2ccccc2Cl)s1` [Example 29, (2-chlorophenyl)-N-{2-[1-methyl-3-(trifluoromethyl)pyrazol-5-yl](1,3-thiazol-5-yl)}carboxamide], the IC50 in experiment [1] (Rattus norvegicus) and in experiment [2] was above 1200 nM throughout.

As for `Cn1nc(C(F)(F)F)cc1-c1sc(C(=O)Nc2c(F)cccc2F)cc1N` [Example 30, {4-Amino-5-[1-methyl-3-(trifluoromethyl)pyrazol-5-yl](2-thienyl)}-N-(2,6-difluorophenyl)carboxamide], the IC50 in experiment [2] is above 1200 nM.

Take `Cn1nc(-c2ccccc2)cc1-c1ccc(C(=O)Nc2ncccc2F)s1` [Example 45]: the IC50 in experiment [1] (Rattus norvegicus) and in experiment [2] was 600 to 1200 nM each time.

With `Cn1nc(-c2nccs2)cc1-c1ccc(C(=O)Nc2c(F)cccc2F)s1` [Example 49, (2,6-difluorophenyl)[5-(1-methyl-3-(1,3-thiazol-2-yl)pyrazol-5-yl](2-thienyl)]carboxamide], the IC50 in experiment [1] (Rattus norvegicus) and in experiment [2] was below 600 nM in each case.

`Cn1nc(-c2nccs2)cc1-c1ccc(C(=O)Nc2c(F)cncc2F)s1` [Example 50]: the IC50 was below 600 nM in experiment [1] (Rattus norvegicus) and 600 to 1200 nM in experiment [2].

Turning to `Cn1nc(-c2nccs2)cc1-c1ccc(C(=O)Nc2ncccc2F)s1` [Example 52], the IC50 in experiment [1] (Rattus norvegicus) and in experiment [2] was 600 to 1200 nM each time.

As to `Cn1nc(-c2cccs2)cc1-c1ccc(C(=O)Nc2c(F)cccc2F)s1` [Example 63, N-(2,6-difluorophenyl)[5-(1-methyl-3-(2-thienyl)pyrazol-5-yl](2-thienyl)]carboxamide], in experiment [2], the IC50 was above 1200 nM.

In the case of `Cn1nc(-c2cccs2)cc1-c1ccc(C(=O)Nc2ccccc2Cl)s1` [Example 65], in experiment [2], the IC50 was above 1200 nM.

As to `Cn1nc(C(F)(F)F)cc1-c1ccc(NC(=O)c2ccccc2F)s1` [Example 71, (2-fluorophenyl)-N-{5-[1-methyl-3-(trifluoromethyl)pyrazol-5-yl](2-thienyl)}carboxamide], the IC50 in experiment [1] (Rattus norvegicus) and in experiment [2] was below 600 nM each time.

As to `Cn1nc(C(F)(F)F)cc1-c1cnc(NC(=O)c2ccc(Cl)cc2)s1` [Example 73], the IC50 in experiment [1] (Rattus norvegicus) and in experiment [2] was 600 to 1200 nM in each case.

For the molecule `Cn1nc(C(F)(F)F)cc1-c1ccc(NC(=O)c2ccncc2F)s1` [Example 75, (3-fluoro(4-pyridyl))-N-{5-[1-methyl-3-(trifluoromethyl)pyrazol-5-yl](2-thienyl)}carboxamide], in experiment [1] (Rattus norvegicus), the IC50 was above 1200 nM. For the same molecule, the “FLIPR_CRAC: 9 point CRC: O1S1_JR251: efficacy” value in experiment [2] was below 50% efficacy.

Take `Cn1nc(C(F)(F)F)cc1-c1cnc(NC(=O)c2ccncc2F)s1` [Example 76]: the IC50 in experiment [1] (Rattus norvegicus) and in experiment [2] was below 600 nM each time.

With `Cn1nc(C(F)(F)F)cc1-c1ccc(NC(=O)c2c(F)cncc2F)s1` [Example 77, (3,5-difluoro(4-pyridyl))-N-{5-[1-methyl-3-(trifluoromethyl)pyrazol-5-yl](2-thienyl)}carboxamide], the IC50 in experiment [1] (Rattus norvegicus) is below 600 nM; in experiment [2], 600 to 1200 nM.

As to `Cn1nc(C(F)(F)F)cc1-c1cnc(NC(=O)c2c(F)cncc2F)s1` [Example 78], the IC50 is 600 to 1200 nM in experiment [1] (Rattus norvegicus) and above 1200 nM in experiment [2].

As to `Cc1cc2c(cc1-c1ccc(NC(=O)c3ccccc3F)s1)OC(F)(F)O2` [Example 79, N-[5-(2,2-difluoro-6-methylbenzo[d]1,3-dioxolen-5-yl)(2-thienyl)](2-fluorophenyl)carboxamide], the half-inhibitory concentration (IC50) was 600 to 1200 nM in experiment [1] (Rattus norvegicus) and above 1200 nM in experiment [2].

Take `Cc1cc2c(cc1-c1ccc(NC(=O)c3c(F)cccc3F)s1)OC(F)(F)O2` [Example 80, N-[5-(2,2-difluoro-6-methylbenzo[d]1,3-dioxolen-5-yl)(2-thienyl)](2,6-difluorophenyl)carboxamide]: the IC50 in experiment [1] (Rattus norvegicus) is below 600 nM; in experiment [2], above 1200 nM.

As to `Cc1cc2c(cc1-c1cnc(NC(=O)c3c(F)cncc3F)s1)OC(F)(F)O2` [Example 81, (3,5-difluoro(4-pyridyl))-N-[5-(2,2-difluoro-6-methylbenzo[d]1,3-dioxolen-5-yl)(1,3-thiazol-2-yl)]carboxamide], the IC50 in experiment [1] (Rattus norvegicus) is below 600 nM; in experiment [2] it was above 1200 nM.

As to “(2,6-difluorophenyl-N-{5-[2-(fluorophenyl)-1-methylpyrazol-5-yl](1,3-thiazol-2-yl)]carboxamide [Example 69]”, the IC50 is below 600 nM in experiment [1] and 600 to 1200 nM in experiment [2].

Values taken from patent US9079891B2, “Compounds that modulate intracellular calcium” (CALCIMEDICA, INC., priority 2010, dated 2015).
